Biological target: T1, acetylcholinesterase (Rattus norvegicus, UniProt P37136)
T1 construct: Using a rat brain homogenate as a source of acetylcholinesterase; from tissue; host or cells: rat brain homogenate
Test: biochemical
Conditions: rat brain homogenate as source of acetylcholinesterase; acetylthiocholine substrate, DTNB, absorbance at 412 nm
Protocol: Using a rat brain homogenate as a source of acetylcholinesterase, the esterase activity was determined in accordance with the method of Ellman et al^1).
^1); Ellman. G. L., Courtney, K. D., Andres, V. and Featherstone, R. M., (1961), Biochem. Pharmacol., 7, 88-95.

T1 sequence (P37136 32-614): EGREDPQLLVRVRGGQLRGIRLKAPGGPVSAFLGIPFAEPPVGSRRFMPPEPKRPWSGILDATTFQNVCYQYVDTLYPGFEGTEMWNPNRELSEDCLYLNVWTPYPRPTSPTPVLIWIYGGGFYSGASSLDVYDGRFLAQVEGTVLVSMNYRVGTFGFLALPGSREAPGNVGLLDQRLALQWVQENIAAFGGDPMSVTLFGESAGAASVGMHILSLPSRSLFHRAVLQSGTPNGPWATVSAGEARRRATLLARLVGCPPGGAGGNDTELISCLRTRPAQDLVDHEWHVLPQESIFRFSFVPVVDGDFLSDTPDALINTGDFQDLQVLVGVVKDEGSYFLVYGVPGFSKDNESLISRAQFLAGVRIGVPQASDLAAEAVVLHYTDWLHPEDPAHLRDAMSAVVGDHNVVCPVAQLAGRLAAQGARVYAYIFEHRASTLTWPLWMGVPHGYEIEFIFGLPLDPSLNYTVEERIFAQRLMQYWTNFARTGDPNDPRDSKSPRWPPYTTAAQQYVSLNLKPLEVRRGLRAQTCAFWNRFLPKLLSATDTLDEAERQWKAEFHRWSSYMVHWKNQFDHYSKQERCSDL

For `COc1cc2c(cc1OC)C(=O)C(Cc1cc[n+](Cc3ccccc3)cc1)C2` (stereo not shown) [Example 1, 1-Benzyl-4-[(5.6-dimethoxy-1-indanone)-2-yl]methylpyridinium bromide], the IC50 was 3.8 nM.

From patent US6706741B2, “Acetylcholinesterase inhibitors containing 1-benzyl-pyridinium salts” (priority 2000, dated 2004)
